Laboratory results reported in ChEMBL document CHEMBL1255419, “Pharmacokinetic-pharmacodynamic assessment of faropenem in a lethal murine Bacillus anthracis inhalation postexposure prophylaxis model” (Antimicrob Agents Chemother, 2010).
Values after ≈ are worked out from the molar mass of the structure shown. Active and inactive are the calls of the source. The rule behind the calls is not given here.

Key:
Bacillus anthracis [1] = test: microbe, parasite or virus in culture; assay type: functional
Bacillus anthracis [2] = test: microbe, parasite or virus in culture; assay type: functional; remark: listed apart in the source
Bacillus anthracis [3] = test: microbe, parasite or virus in culture; assay type: functional; remark: listed apart in the source
Bacillus anthracis [4] = test: Antibacterial activity against beta-lactamase Bla1 and Bla2-producing Bacillus anthracis Sterne by broth microdilution method; assay type: functional
Bacillus anthracis [5] = test: microbe, parasite or virus in culture; assay type: functional; remark: listed apart in the source
Bacillus anthracis [6] = test: microbe, parasite or virus in culture; assay type: functional; remark: listed apart in the source
Bacillus anthracis [7] = test: microbe, parasite or virus in culture; assay type: functional; remark: listed apart in the source
Bacillus anthracis [8] = test: microbe, parasite or virus in culture; assay type: functional; remark: listed apart in the source
Bacillus anthracis [9] = test: microbe, parasite or virus in culture; assay type: functional; remark: listed apart in the source
Bacillus anthracis [10] = test: microbe, parasite or virus in culture; assay type: functional; remark: listed apart in the source
Bacillus anthracis [11] = test: microbe, parasite or virus in culture; assay type: functional; remark: listed apart in the source
Bacillus anthracis [12] = test: microbe, parasite or virus in culture; assay type: functional; remark: listed apart in the source
Bacillus anthracis [13] = test: microbe, parasite or virus in culture; assay type: functional; remark: listed apart in the source
Bacillus anthracis [14] = test: microbe, parasite or virus in culture; assay type: functional; remark: listed apart in the source
Bacillus anthracis [15] = test: microbe, parasite or virus in culture; assay type: functional; remark: listed apart in the source
Bacillus anthracis [16] = test: microbe, parasite or virus in culture; assay type: functional; remark: listed apart in the source
Bacillus anthracis [17] = test: microbe, parasite or virus in culture; assay type: functional; remark: listed apart in the source
Bacillus anthracis [18] = test: microbe, parasite or virus in culture; assay type: functional; remark: listed apart in the source
Bacillus anthracis [19] = test: microbe, parasite or virus in culture; assay type: functional; remark: listed apart in the source
Bacillus anthracis [20] = test: microbe, parasite or virus in culture; assay type: functional; remark: listed apart in the source
Bacillus anthracis [21] = test: microbe, parasite or virus in culture; assay type: functional; remark: listed apart in the source
Bacillus anthracis [22] = test: microbe, parasite or virus in culture; assay type: functional; remark: listed apart in the source
Bacillus anthracis [23] = test: microbe, parasite or virus in culture; assay type: functional; remark: listed apart in the source
Bacillus anthracis [24] = test: microbe, parasite or virus in culture; assay type: functional; remark: listed apart in the source
Bacillus anthracis [25] = test: microbe, parasite or virus in culture; assay type: functional; remark: listed apart in the source
Bacillus anthracis [26] = test: microbe, parasite or virus in culture; assay type: functional; remark: listed apart in the source
Bacillus anthracis [27] = test: microbe, parasite or virus in culture; assay type: functional; remark: listed apart in the source
Bacillus anthracis [28] = test: microbe, parasite or virus in culture; assay type: functional; remark: listed apart in the source
Bacillus anthracis [29] = test: microbe, parasite or virus in culture; assay type: functional; remark: listed apart in the source
Bacillus anthracis [30] = settings: Ames, 30 mg/kg
Bacillus anthracis [31] = test: animal or person; settings: Ames, in Mus musculus, ip

| Structure (SMILES) | MIC (Bacillus anthracis [1]) | MIC (Bacillus anthracis [2]) | MIC (Bacillus anthracis [3]) | MIC (Bacillus anthracis [4]) | MIC (Bacillus anthracis [5]) | MIC (Bacillus anthracis [6]) | MIC (Bacillus anthracis [7]) | MIC (Bacillus anthracis [8]) | MIC (Bacillus anthracis [9]) | MIC (Bacillus anthracis [10]) | MIC (Bacillus anthracis [11]) | MIC (Bacillus anthracis [13]) | MIC (Bacillus anthracis [14]) | MIC (Bacillus anthracis [15]) | MIC (Bacillus anthracis [16]) | MIC (Bacillus anthracis [17]) | MIC (Bacillus anthracis [18]) | MIC (Bacillus anthracis [19]) | MIC (Bacillus anthracis [20]) | MIC (Bacillus anthracis [21]) | further results |
| --- | --- | --- | --- | --- | --- | --- | --- | --- | --- | --- | --- | --- | --- | --- | --- | --- | --- | --- | --- | --- | --- |
| CC[C@H]1OC(=O)[C@H](C)[C@@H](O[C@H]2C[C@@](C)(OC)[C@@H](O)[C@H](C)O2)[C@H](C)[C@@H](O[C@@H]2O[C@H](C)C[C@H](N(C)C)[C@H]2O)[C@](C)(O)C[C@@H](C)CN(C)[C@H](C)[C@@H](O)[C@]1(C)O [AZITHROMYCIN] | 2 µg/mL (≈ 2.67 µM) | 2 µg/mL (≈ 2.67 µM) | 2 µg/mL (≈ 2.67 µM) | 2 µg/mL (≈ 2.67 µM) | 4 µg/mL (≈ 5.34 µM) | 1 µg/mL (≈ 1.34 µM) | 2 µg/mL (≈ 2.67 µM) | 2 µg/mL (≈ 2.67 µM) | 2 µg/mL (≈ 2.67 µM) | 4 µg/mL (≈ 5.34 µM) | 4 µg/mL (≈ 5.34 µM) | 4 µg/mL (≈ 5.34 µM) | 4 µg/mL (≈ 5.34 µM) | 4 µg/mL (≈ 5.34 µM) | 4 µg/mL (≈ 5.34 µM) | 4 µg/mL (≈ 5.34 µM) | 4 µg/mL (≈ 5.34 µM) | 4 µg/mL (≈ 5.34 µM) | 4 µg/mL (≈ 5.34 µM) | 4 µg/mL (≈ 5.34 µM) | MIC (Bacillus anthracis [12]): 4 µg/mL (≈ 5.34 µM); MIC (Bacillus anthracis [22]): 4 µg/mL (≈ 5.34 µM); MIC (Bacillus anthracis [23]): 4 µg/mL (≈ 5.34 µM); MIC (Bacillus anthracis [24]): 4 µg/mL (≈ 5.34 µM); MIC (Bacillus anthracis [25]): 4 µg/mL (≈ 5.34 µM); MIC (Bacillus anthracis [26]): 4 µg/mL (≈ 5.34 µM); MIC (Bacillus anthracis [27]): 2 µg/mL (≈ 2.67 µM); MIC (Bacillus anthracis [28]): 2 µg/mL (≈ 2.67 µM); MIC (Bacillus anthracis [29]): 4 µg/mL (≈ 5.34 µM) |
| O=C(O)c1cn(C2CC2)c2cc(N3CCNCC3)c(F)cc2c1=O [CIPROFLOXACIN] | ≤ 0.06 µg/mL | ≤ 0.06 µg/mL | 0.12 µg/mL (≈ 0.362 µM) | ≤ 0.06 µg/mL | ≤ 0.06 µg/mL | 0.25 µg/mL (≈ 0.754 µM) | ≤ 0.06 µg/mL | ≤ 0.06 µg/mL | ≤ 0.06 µg/mL | 0.25 µg/mL (≈ 0.754 µM) | 0.12 µg/mL (≈ 0.362 µM) | 0.12 µg/mL (≈ 0.362 µM) | 0.12 µg/mL (≈ 0.362 µM) | ≤ 0.06 µg/mL | ≤ 0.06 µg/mL | 0.12 µg/mL (≈ 0.362 µM) | 0.12 µg/mL (≈ 0.362 µM) | 0.12 µg/mL (≈ 0.362 µM) | ≤ 0.06 µg/mL | ≤ 0.06 µg/mL | MIC (Bacillus anthracis [22]): 0.12 µg/mL (≈ 0.362 µM); MIC (Bacillus anthracis [23]): ≤ 0.06 µg/mL; MIC (Bacillus anthracis [24]): 0.25 µg/mL (≈ 0.754 µM); MIC (Bacillus anthracis [25]): 1 µg/mL (≈ 3.02 µM); MIC (Bacillus anthracis [26]): ≤ 0.06 µg/mL; MIC (Bacillus anthracis [27]): ≤ 0.06 µg/mL; MIC (Bacillus anthracis [28]): 0.12 µg/mL (≈ 0.362 µM); MIC (Bacillus anthracis [29]): ≤ 0.06 µg/mL; inhibition (Bacillus anthracis [30]): Active; survival at 60 mg/kg (Bacillus anthracis [31]): 90% |
| C[C@H]1c2cccc(O)c2C(=O)C2=C(O)[C@]3(O)C(=O)C(C(N)=O)=C(O)[C@@H](N(C)C)[C@@H]3[C@@H](O)[C@@H]21.O [DOXYCYCLINE] | ≤ 0.06 µg/mL | ≤ 0.06 µg/mL | ≤ 0.06 µg/mL | ≤ 0.06 µg/mL | ≤ 0.06 µg/mL | ≤ 0.06 µg/mL | ≤ 0.06 µg/mL | ≤ 0.06 µg/mL | ≤ 0.06 µg/mL | 0.25 µg/mL | ≤ 0.06 µg/mL | ≤ 0.06 µg/mL | ≤ 0.06 µg/mL | ≤ 0.06 µg/mL | ≤ 0.06 µg/mL | ≤ 0.06 µg/mL | ≤ 0.06 µg/mL | ≤ 0.06 µg/mL | ≤ 0.06 µg/mL | ≤ 0.06 µg/mL | MIC (Bacillus anthracis [12]): ≤ 0.06 µg/mL; MIC (Bacillus anthracis [22]): ≤ 0.06 µg/mL; MIC (Bacillus anthracis [23]): ≤ 0.06 µg/mL; MIC (Bacillus anthracis [24]): ≤ 0.06 µg/mL; MIC (Bacillus anthracis [25]): ≤ 0.06 µg/mL; MIC (Bacillus anthracis [26]): ≤ 0.06 µg/mL; MIC (Bacillus anthracis [27]): ≤ 0.06 µg/mL; MIC (Bacillus anthracis [28]): ≤ 0.06 µg/mL; MIC (Bacillus anthracis [29]): ≤ 0.06 µg/mL |
| C[C@@H](O)[C@H]1C(=O)N2C(C(=O)O)=C(S[C@@H]3CN[C@H](C(=O)N(C)C)C3)[C@H](C)[C@H]12 [MEROPENEM] | 0.5 µg/mL (≈ 1.3 µM) | 0.06 µg/mL (≈ 0.156 µM) | 0.12 µg/mL (≈ 0.313 µM) | ≤ 0.06 µg/mL | 32 µg/mL (≈ 83.4 µM) | ≤ 0.06 µg/mL | < 0.06 µg/mL | 4 µg/mL (≈ 10.4 µM) | 0.12 µg/mL (≈ 0.313 µM) | 0.25 µg/mL (≈ 0.652 µM) | 0.12 µg/mL (≈ 0.313 µM) | 0.12 µg/mL (≈ 0.313 µM) | 0.12 µg/mL (≈ 0.313 µM) | 0.12 µg/mL (≈ 0.313 µM) | 0.12 µg/mL (≈ 0.313 µM) | 0.12 µg/mL (≈ 0.313 µM) | 0.12 µg/mL (≈ 0.313 µM) | 0.25 µg/mL (≈ 0.652 µM) | 8 µg/mL (≈ 20.9 µM) | 0.12 µg/mL (≈ 0.313 µM) | MIC (Bacillus anthracis [12]): 0.12 µg/mL (≈ 0.313 µM); MIC (Bacillus anthracis [22]): 0.25 µg/mL (≈ 0.652 µM); MIC (Bacillus anthracis [23]): 0.25 µg/mL (≈ 0.652 µM); MIC (Bacillus anthracis [24]): 0.25 µg/mL (≈ 0.652 µM); MIC (Bacillus anthracis [25]): 0.25 µg/mL (≈ 0.652 µM); MIC (Bacillus anthracis [26]): 0.12 µg/mL (≈ 0.313 µM); MIC (Bacillus anthracis [27]): 0.12 µg/mL (≈ 0.313 µM); MIC (Bacillus anthracis [28]): 0.25 µg/mL (≈ 0.652 µM); MIC (Bacillus anthracis [29]): 0.12 µg/mL (≈ 0.313 µM) |
| CC1(C)S[C@@H]2[C@H](NC(=O)Cc3ccccc3)C(=O)N2[C@H]1C(=O)O [PENICILLIN G] | 2 µg/mL (≈ 5.98 µM) | 4 µg/mL (≈ 12 µM) | 4 µg/mL (≈ 12 µM) | 4 µg/mL (≈ 12 µM) | 32 µg/mL (≈ 95.7 µM) | 1 µg/mL (≈ 2.99 µM) | 1 µg/mL (≈ 2.99 µM) | 8 µg/mL (≈ 23.9 µM) | 8 µg/mL (≈ 23.9 µM) | 2 µg/mL (≈ 5.98 µM) | 1 µg/mL (≈ 2.99 µM) | 2 µg/mL (≈ 5.98 µM) | 1 µg/mL (≈ 2.99 µM) | 2 µg/mL (≈ 5.98 µM) | 2 µg/mL (≈ 5.98 µM) | 1 µg/mL (≈ 2.99 µM) | 1 µg/mL (≈ 2.99 µM) | 2 µg/mL (≈ 5.98 µM) | 2 µg/mL (≈ 5.98 µM) | 2 µg/mL (≈ 5.98 µM) | MIC (Bacillus anthracis [12]): 2 µg/mL (≈ 5.98 µM); MIC (Bacillus anthracis [22]): 1 µg/mL (≈ 2.99 µM); MIC (Bacillus anthracis [23]): 8 µg/mL (≈ 23.9 µM); MIC (Bacillus anthracis [24]): 4 µg/mL (≈ 12 µM); MIC (Bacillus anthracis [25]): 2 µg/mL (≈ 5.98 µM); MIC (Bacillus anthracis [26]): 4 µg/mL (≈ 12 µM); MIC (Bacillus anthracis [27]): 4 µg/mL (≈ 12 µM); MIC (Bacillus anthracis [28]): 4 µg/mL (≈ 12 µM); MIC (Bacillus anthracis [29]): 2 µg/mL (≈ 5.98 µM) |
| CN(C)[C@@H]1C(O)=C(C(N)=O)C(=O)[C@@]2(O)C(O)=C3C(=O)c4c(O)cccc4[C@@](C)(O)[C@H]3C[C@@H]12 [TETRACYCLINE] | ≤ 0.06 µg/mL | ≤ 0.06 µg/mL | ≤ 0.06 µg/mL | ≤ 0.06 µg/mL | ≤ 0.06 µg/mL | ≤ 0.06 µg/mL | ≤ 0.06 µg/mL | ≤ 0.06 µg/mL | ≤ 0.06 µg/mL | ≤ 0.06 µg/mL | ≤ 0.06 µg/mL | ≤ 0.06 µg/mL | ≤ 0.06 µg/mL | ≤ 0.06 µg/mL | ≤ 0.06 µg/mL | ≤ 0.06 µg/mL | ≤ 0.06 µg/mL | ≤ 0.06 µg/mL | ≤ 0.06 µg/mL | ≤ 0.06 µg/mL | MIC (Bacillus anthracis [12]): ≤ 0.06 µg/mL; MIC (Bacillus anthracis [22]): ≤ 0.06 µg/mL; MIC (Bacillus anthracis [23]): ≤ 0.06 µg/mL; MIC (Bacillus anthracis [24]): ≤ 0.06 µg/mL; MIC (Bacillus anthracis [25]): ≤ 0.06 µg/mL; MIC (Bacillus anthracis [26]): ≤ 0.06 µg/mL; MIC (Bacillus anthracis [27]): ≤ 0.06 µg/mL; MIC (Bacillus anthracis [28]): ≤ 0.06 µg/mL; MIC (Bacillus anthracis [29]): ≤ 0.06 µg/mL |
